Reference: US12370235B2, “Synthetic, non-natural antimicrobial peptides inspired by Staphylococcus auricularis delta toxin” (University of Saskatchewan, priority 2021, dated 2025)
Ends that are not written are not given here.

How the values were obtained:
S. aureus ATCC 29213 = assay: MIC, broth dilution; assay type: cell-based, Staphylococcus aureus; settings: Table 5; STIP3 variants, highest concentration 100 μg/mL
How it was run: (§1)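 MIC defined as the lowest peptide level giving no growth after overnight standing incubation at 37° C. Bacteria at OD 6×10^−4 in cation-adjusted MH broth met 2-fold serial peptide dilutions; peptide purity 95%.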

[1] = system: S. aureus ATCC 33592 (MRSA SCCmec type III); assay: MIC, broth dilution; assay type: cell-based, Staphylococcus aureus; settings: Table 5; STIP3 variants, highest concentration 100 μg/mL
How it was run: as §1

[2] = Circular dichroism spectroscopy; assay type: physicochemical; settings: CD, 50% (v/v) TFE
From the text: The δ-toxins and the PSMs are characterized as α-helical peptides that form amyloid fibers^48. Although the propensity of individual peptides to form amyloids is correlated to their cytotoxicity^49, the amyloid form is not directly implicated in cell membrane disruption^50. […] CD spectroscopy was used to investigate the secondary structure of a subset of peptides within the collection (FIG. 4A, Table 5). The STIP variants adopted α-helical forms in 50% (v/v) trifluoroethanol (TFE), though unlike the full-length S. auricularis δ-toxin, they were unstructured in water. […] Specifically, peptides characterized by the greatest and least α-helical content in TFE had MICs above the highest tested threshold.
Circular dichroism spectroscopy. Peptides were dissolved in water at concentrations between 0.3 and 0.5 mg/mL. CD spectra were recorded on an Applied Photophysics Chirascan Plus CD spectrophotometer at room temperature in a 0.1 cm path-length quartz cuvette. Spectra were recorded from 180 to 260 nm.

[3] = system: S. aureus / MRSA (ATCC MP-2 panel); assay type: cell-based, Staphylococcus aureus; settings: for inhibition of S. aureus: MIC screen, in words
Experimental: In order to begin to characterize STIP3-1 and potential sites amenable to modification, an alanine scanning experiment was performed. A total of 16 peptides with single alanine substitutions were assessed to inform on the importance of individual residues to antimicrobial activity. […] Next a series of thirty STIP3-1 variants were designed, guided by the aforementioned alanine scan and a previous report that the central α-helical core of the S. aureus δ-toxin could be converted into AMP through the inclusion of additional lysine residues^39. The collection included ten members with single substitutions relative to STIP3-1 and others that incorporated a number of changes that were designed to increase overall and local cationic charge as well as hydrophobic character (Table 5). Each of the STIPs was screened, including STIP3-1 to STIP-31, for antibiotic activity against a methicillin-sensitive S. aureus test organism and a panel of 7 MRSA strains defined by distinct SCCmec genotypes (FIG. 2; ATCC MP-2).
Determination of minimum inhibitory concentrations. The MICs were measured for bioactive peptides identified from the initial screen. For bacterial studies, cation-adjusted Mueller Hinton (MH) broth was used as the growth medium whereas YPD was used for C. albicans. Bacterial cultures were diluted to a OD value of 6×10^−4 in MH broth and a 180 μl volume was mixed with 20 μl of peptide arrayed as 2-fold dilution series in a 96-well plate. For the positive control, 20 μl of sterile water was used. Plates were incubated as standing cultures overnight at 37° C. The lowest peptide concentration that resulted no observed microbial growth after an overnight treatment was defined as the MIC.

C. albicans Y537 = assay: MIC, YPD broth; assay type: cell-based, Candida albicans; settings: Table 8
C. albicans MYA-2876 = assay: MIC, YPD broth; assay type: cell-based, Candida albicans; settings: Table 8
How it was run: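 Minimum inhibitory concentrations against Candida albicans were determined in YPD broth (10 g/L yeast extract, 20 g/L peptone, 20 g/L dextrose) using peptides of 95% purity. A 180 μl volume of diluted yeast was combined with 20 μl of peptide in a 2-fold dilution series in 96-well plates, with sterile water as control, then incubated standing overnight at 37° C.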

[4] = system: S. aureus ATCC BAA-1683 (MRSA SCCmec type IV); assay: MIC, broth dilution; assay type: cell-based, Staphylococcus aureus; settings: Table 5; STIP3 variants, highest concentration 100 μg/mL
How it was run: as §1

[5] = system: S. aureus ATCC BAA-42 (MRSA SCCmec type VI); assay: MIC, broth dilution; assay type: cell-based, Staphylococcus aureus; settings: Table 5; STIP3 variants, highest concentration 100 μg/mL
How it was run: as §1

[6] = system: S. aureus ATCC BAA-2313 (MRSA SCCmec type XI); assay: MIC, broth dilution; assay type: cell-based, Staphylococcus aureus; settings: Table 5; STIP3 variants, highest concentration 100 μg/mL
How it was run: as §1

[7] = system: S. aureus ATCC BAA-41 (MRSA SCCmec type II); assay: MIC, broth dilution; assay type: cell-based, Staphylococcus aureus; settings: Table 5; STIP3 variants, highest concentration 100 μg/mL
How it was run: as §1

[8] = system: S. aureus ATCC BAA-2094 (MRSA SCCmec type V); assay: MIC, broth dilution; assay type: cell-based, Staphylococcus aureus; settings: Table 5; STIP3 variants, highest concentration 100 μg/mL
How it was run: as §1

[9] = system: S. aureus ATCC BAA-44 (MRSA SCCmec type I); assay: MIC, broth dilution; assay type: cell-based, Staphylococcus aureus; settings: Table 5; STIP3 variants, highest concentration 100 μg/mL
How it was run: as §1

[10] = system: Mannheimia haemolytica ATCC 33393; assay: MIC, broth dilution; assay type: cell-based; settings: Table 11; highest concentration 25 μg/mL
How it was run: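 Peptides (95% purity) in 2-fold dilution series were mixed with M. haemolytica diluted to OD 6×10^−4 in cation-adjusted Mueller Hinton broth and incubated standing overnight at 37 °C. MIC was the lowest concentration with no visible growth.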

[11] = system: Candida haemulonii AR 395; assay: MIC, YPD broth, CDC and FDA AR Candida isolate panel; assay type: cell-based; settings: Table 9 below the line: only 200 or 100 μg/mL tested; values reported as 100 are ≤100 μg/mL
How it was run: (§2)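 Growth inhibition by peptides (95% pure) is scored after standing overnight incubation at 37° C. Cells at an optical density of […] are exposed to a doubling dilution series of peptide.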

Kodamae ohmeri AR 396 = assay: as above; assay type: cell-based; settings: Table 9 below the line: only 200 or 100 μg/mL tested; values reported as 100 are ≤100 μg/mL
How it was run: as §2

[12] = system: Saccharomyces cerevisiae AR 400; assay: as above; assay type: cell-based; settings: Table 9 below the line: only 200 or 100 μg/mL tested; values reported as 100 are ≤100 μg/mL
How it was run: as §2

[13] = system: Candida duobushaemulonii AR 391; assay: as above; assay type: cell-based; settings: Table 9 below the line: only 200 or 100 μg/mL tested; values reported as 100 are ≤100 μg/mL
How it was run: as §2

[14] = system: Candida haemulonii AR 393; assay: as above; assay type: cell-based; settings: Table 9 below the line: only 200 or 100 μg/mL tested; values reported as 100 are ≤100 μg/mL
How it was run: as §2

[15] = system: Candida duobushaemulonii AR 392; assay: as above; assay type: cell-based; settings: Table 9 below the line: only 200 or 100 μg/mL tested; values reported as 100 are ≤100 μg/mL
How it was run: as §2

[16] = system: Candida lusitaniae AR 398; assay: as above; assay type: cell-based; settings: Table 9 below the line: only 200 or 100 μg/mL tested; values reported as 100 are ≤100 μg/mL
How it was run: as §2

[17] = system: Saccharomyces cerevisiae AR 399; assay: as above; assay type: cell-based; settings: Table 9 below the line: only 200 or 100 μg/mL tested; values reported as 100 are ≤100 μg/mL
How it was run: as §2

[18] = system: Candida duobushaemulonii AR 394; assay: as above; assay type: cell-based; settings: Table 9 below the line: only 200 or 100 μg/mL tested; values reported as 100 are ≤100 μg/mL
How it was run: as §2

Candida krusei AR 397 = assay: as above; assay type: cell-based; settings: Table 9 below the line: only 200 or 100 μg/mL tested; values reported as 100 are ≤100 μg/mL
How it was run: as §2

Row | Substance | MIC S. aureus ATCC 29213 (S. aureus ATCC 29213) | MIC S. aureus ATCC 33592 (III) [1] | MIC C. albicans Y537 (C. albicans Y537) | MIC C. albicans MYA-2876 (C. albicans MYA-2876) | MIC S. aureus ATCC BAA 1683 (IV) [4] | MIC S. aureus ATCC BAA 42 (VI) [5] | MIC S. aureus ATCC BAA 2313 (XI) [6] | MIC S. aureus ATCC BAA 41 (II) [7] | MIC S. aureus ATCC BAA 2094 (V) [8] | MIC S. aureus ATCC BAA 44 (I) [9] | MIC (μg/mL) M. haemolytica [10] | MIC (μg/mL) Candida haemulonii AR 395 [11] | MIC (μg/mL) Kodamae ohmeri AR 396 (Kodamae ohmeri AR 396) | MIC (μg/mL) Saccharomyces cerevisiae AR 400 [12] [µg/mL] | MIC (μg/mL) Candida duobushaemulonii AR 391 [13] | MIC (μg/mL) Candida haemulonii AR 393 [14] | MIC (μg/mL) Candida duobushaemulonii AR 392 [15] | MIC (μg/mL) Candida lusitaniae AR 398 [16] [µg/mL] | MIC (μg/mL) Saccharomyces cerevisiae AR 399 [17] [µg/mL] | MIC (μg/mL) Candida duobushaemulonii AR 394 [18] | also measured
1 | TVGGLVKWILKTVKKFA-NH2 [STIP3-29-D3] | > (no inhibition was observed at the highest concentration of peptide tested: 100 μg/mL for the STIP3 variants) | > (no inhibition was observed at the highest concentration of peptide tested: 100 μg/mL for the STIP3 variants) | – | – | – | – | – | – | – | – | – | – | – | – | – | – | – | – | – | – | α helicity (%) [2]: 32%; fold increase of MIC relative to STIP3-29 [3]: greater than 16 fold
2 | TVKFLVKWILKWVAKFA [STIP3-25, TVKFLVKWILKWVAKFA] | > (no inhibition was observed at the highest concentration of peptide tested: 100 μg/mL for the STIP3 variants) | > (no inhibition was observed at the highest concentration of peptide tested: 100 μg/mL for the STIP3 variants) | 25 µg/mL | 25 µg/mL | > (no inhibition was observed at the highest concentration of peptide tested: 100 μg/mL for the STIP3 variants) | > (no inhibition was observed at the highest concentration of peptide tested: 100 μg/mL for the STIP3 variants) | > (no inhibition was observed at the highest concentration of peptide tested: 100 μg/mL for the STIP3 variants) | > (no inhibition was observed at the highest concentration of peptide tested: 100 μg/mL for the STIP3 variants) | > (no inhibition was observed at the highest concentration of peptide tested: 100 μg/mL for the STIP3 variants) | > (no inhibition was observed at the highest concentration of peptide tested: 100 μg/mL for the STIP3 variants) | > (> symbol indicates that no inhibition was observed at the highest concentration of peptide tested: 25 μg/mL) | > (values below the line were determined using two concentrations of peptide 200 or 100 μg/mL) | > (values below the line were determined using two concentrations of peptide 200 or 100 μg/mL) | ≤ 100 | > (values below the line were determined using two concentrations of peptide 200 or 100 μg/mL) | > (values below the line were determined using two concentrations of peptide 200 or 100 μg/mL) | > (values below the line were determined using two concentrations of peptide 200 or 100 μg/mL) | ≤ 100 | ≤ 100 | > (values below the line were determined using two concentrations of peptide 200 or 100 μg/mL) | MIC (μg/mL) Candida krusei AR 397 (Candida krusei AR 397): > (values below the line were determined using two concentrations of peptide 200 or 100 μg/mL); inhibition of S. aureus [3]: incapable of inhibiting S. aureus
3 | TVKVLVKWILKVVAKFA [STIP3-26, TVKVLVKWILKVVAKFA] | > (no inhibition was observed at the highest concentration of peptide tested: 100 μg/mL for the STIP3 variants) | > (no inhibition was observed at the highest concentration of peptide tested: 100 μg/mL for the STIP3 variants) | > (> symbol indicates that no inhibition was observed at the highest concentration of peptide tested: 100 μg/mL) | > (> symbol indicates that no inhibition was observed at the highest concentration of peptide tested: 100 μg/mL) | > (no inhibition was observed at the highest concentration of peptide tested: 100 μg/mL for the STIP3 variants) | > (no inhibition was observed at the highest concentration of peptide tested: 100 μg/mL for the STIP3 variants) | > (no inhibition was observed at the highest concentration of peptide tested: 100 μg/mL for the STIP3 variants) | > (no inhibition was observed at the highest concentration of peptide tested: 100 μg/mL for the STIP3 variants) | > (no inhibition was observed at the highest concentration of peptide tested: 100 μg/mL for the STIP3 variants) | > (no inhibition was observed at the highest concentration of peptide tested: 100 μg/mL for the STIP3 variants) | > (> symbol indicates that no inhibition was observed at the highest concentration of peptide tested: 25 μg/mL) | > (values below the line were determined using two concentrations of peptide 200 or 100 μg/mL) | > (values below the line were determined using two concentrations of peptide 200 or 100 μg/mL) | ≤ 100 | > (values below the line were determined using two concentrations of peptide 200 or 100 μg/mL) | > (values below the line were determined using two concentrations of peptide 200 or 100 μg/mL) | > (values below the line were determined using two concentrations of peptide 200 or 100 μg/mL) | ≤ 100 | ≤ 100 | > (values below the line were determined using two concentrations of peptide 200 or 100 μg/mL) | MIC (μg/mL) Candida krusei AR 397 (Candida krusei AR 397): > (values below the line were determined using two concentrations of peptide 200 or 100 μg/mL); inhibition of S. aureus [3]: incapable of inhibiting S. aureus
